According to PMC7070694, “Identification of New Peptides from Fermented Milk Showing Antioxidant Properties: Mechanism of Action” (Antioxidants, 2020):
Peptide text beside a SMILES is read from it.

Assay: MTT cell viability (cytotoxicity)
Type: cell-based
Settings: human, Caco-2 cells (1 × 10^4), synthetic peptides 0.05 mg/mL, no TbOOH, mean ± SD of at least three experiments, read-out: Percentage of Cell Viability, None (c)

Row | SMILES | viability at 24 h, 50 µg/mL [%]
1 | CC[C@H](C)[C@H](NC(=O)[C@H](CCC(N)=O)NC(=O)[C@H](C)NC(=O)[C@@H]1CCCN1C(=O)[C@H](CO)NC(=O)[C@H](CCCNC(=N)N)NC(=O)[C@@H](NC(=O)[C@H](C)N)C(C)C)C(=O)N[C@@H](CC(C)C)C(=O)N[C@@H](CCC(N)=O)C(=O)N[C@@H](Cc1c[nH]c2ccccc12)C(=O)N[C@@H](CCC(N)=O)C(=O)O [A-12-Q] (H-AVRSPAQILQWQ-OH) | 102 ± 4.69
2 | CC(C)C[C@H](NC(=O)[C@H](Cc1ccc(O)cc1)NC(=O)[C@H](CCC(N)=O)NC(=O)[C@@H]1CCCN1C(=O)[C@H](CC(C)C)NC(=O)[C@H](C)N)C(=O)N[C@@H](CCCCN)C(=O)N[C@H](C(=O)N[C@H](C(=O)N[C@@H](Cc1ccc(O)cc1)C(=O)N[C@@H](CCC(N)=O)C(=O)N[C@@H](Cc1c[nH]cn1)C(=O)N[C@@H](CCC(N)=O)C(=O)N[C@@H](CCCCN)C(=O)O)C(C)C)[C@@H](C)O [A-14-K] (H-ALPQYLKTVYQHQK-OH) | 84.4 ± 9.69
3 | CC[C@H](C)[C@H](NC(=O)[C@@H](NC(=O)[C@H](CC(N)=O)NC(=O)[C@@H](NC(=O)[C@@H](NC(=O)[C@@H]1CCCN1C(=O)[C@@H](NC(=O)[C@H](CCC(=O)O)NC(=O)[C@@H](NC(=O)[C@H](CCCCN)NC(=O)[C@@H](N)CC(=O)O)[C@@H](C)O)[C@@H](C)CC)[C@@H](C)O)[C@@H](C)CC)[C@@H](C)O)C(=O)N[C@@H](C)C(=O)N[C@@H](CO)C(=O)NCC(=O)N[C@@H](CCC(=O)O)C(=O)N1CCC[C@H]1C(=O)N[C@H](C(=O)O)[C@@H](C)O [D-17-T] (H-DKTEIPTINTIASGEPT-OH) | 104 ± 5.62
4 | CC[C@H](C)[C@H](NC(=O)[C@H](CCCCN)NC(=O)[C@@H](NC(=O)[C@@H](NC(=O)[C@@H]1CCCN1C(=O)[C@@H](NC(=O)CNC(=O)[C@@H](NC(=O)[C@H](CC(=O)O)NC(=O)[C@H](CC(=O)O)NC(=O)[C@H](CCCCN)NC(=O)[C@@H](N)CCC(=O)O)[C@@H](C)O)[C@@H](C)O)[C@@H](C)CC)[C@@H](C)O)C(=O)N[C@@H](CCC(=O)O)C(=O)N[C@@H](CC(C)C)C(=O)N[C@H](C(=O)N1CCC[C@H]1C(=O)N[C@@H](CO)C(=O)N[C@@H](Cc1c[nH]cn1)C(=O)O)C(C)C [E-18-H] (H-EKDDTGTPITKIELVPSH-OH) | 104 ± 5.01
5 | CC(C)[C@H](NC(=O)[C@@H]1CCCN1C(=O)[C@H](Cc1ccc(O)cc1)NC(=O)[C@H](CCCCN)NC(=O)[C@@H]1CCCN1C(=O)[C@@H](N)Cc1ccccc1)C(=O)N[C@@H](CCC(=O)O)C(=O)N1CCC[C@H]1C(=O)N[C@@H](Cc1ccccc1)C(=O)O [F-9-F] (H-FPKYPVEPF-OH) | 109 ± 12.7
6 | CC[C@H](C)[C@H](NC(=O)[C@H](CCCCN)NC(=O)[C@H](CCCCN)NC(=O)[C@H](CC(C)C)NC(=O)[C@@H](N)Cc1ccccc1)C(=O)N[C@@H](CO)C(=O)N[C@@H](CCC(N)=O)C(=O)N[C@@H](CCCNC(=N)N)C(=O)N[C@@H](Cc1ccc(O)cc1)C(=O)N[C@@H](CCC(N)=O)C(=O)N[C@@H](CCCCN)C(=O)N[C@@H](Cc1ccccc1)C(=O)O [F-12-F] (H-FLKKISQRYQKF-OH) | 97.7 ± 19.2
7 | CSCC[C@H](NC(=O)[C@H](CCC(=O)O)NC(=O)[C@H](CCCCN)NC(=O)[C@@H](N)Cc1c[nH]cn1)C(=O)N1CCC[C@H]1C(=O)N[C@@H](Cc1ccccc1)C(=O)N1CCC[C@H]1C(=O)N[C@@H](CCCCN)C(=O)N[C@@H](Cc1ccc(O)cc1)C(=O)N1CCC[C@H]1C(=O)N[C@H](C(=O)N[C@@H](CCC(=O)O)C(=O)N1CCC[C@H]1C(=O)N[C@@H](Cc1ccccc1)C(=O)N[C@H](C(=O)N[C@@H](CCC(=O)O)C(=O)N[C@@H](CO)C(=O)N[C@@H](CCC(N)=O)C(=O)O)[C@@H](C)O)C(C)C [H-18-Q] (H-HKEMPFPKYPVEPFTESQ-OH) | 91.9 ± 8.99
8 | CC[C@H](C)[C@H](N)C(=O)N[C@@H](CCC(N)=O)C(=O)N1CCC[C@H]1C(=O)N[C@@H](CCCCN)C(=O)N[C@H](C(=O)N[C@@H](CCCCN)C(=O)N[C@H](C(=O)N[C@H](C(=O)N1CCC[C@H]1C(=O)N[C@@H](Cc1ccc(O)cc1)C(=O)N[C@H](C(=O)N[C@@H](CCCNC(=N)N)C(=O)N[C@@H](Cc1ccc(O)cc1)C(=O)N[C@@H](CC(C)C)C(=O)O)C(C)C)[C@@H](C)CC)C(C)C)[C@@H](C)O [I-14-L] (H-IQPKTKVIPYVRYL-OH) | 93 ± 13.6
9 | CC[C@H](C)[C@H](N)C(=O)N[C@@H](CC(N)=O)C(=O)N[C@@H](CC(N)=O)C(=O)N[C@@H](CCC(N)=O)C(=O)N[C@@H](Cc1ccccc1)C(=O)N[C@@H](CC(C)C)C(=O)N1CCC[C@H]1C(=O)N[C@@H](Cc1ccc(O)cc1)C(=O)N1CCC[C@H]1C(=O)N[C@@H](Cc1ccc(O)cc1)C(=O)N[C@@H](Cc1ccc(O)cc1)C(=O)N[C@@H](C)C(=O)N[C@@H](CCCCN)C(=O)N1CCC[C@H]1C(=O)N[C@@H](C)C(=O)O [I-15-A] (H-INNQFLPYPYYAKPA-OH) | 104 ± 5.12
10 | CC[C@H](C)[C@H](NC(=O)[C@@H]1CCCN1C(=O)[C@@H](NC(=O)[C@H](Cc1ccc(O)cc1)NC(=O)[C@@H](N)CCCCN)[C@@H](C)CC)C(=O)N[C@@H](CCC(N)=O)C(=O)N[C@@H](Cc1ccc(O)cc1)C(=O)N[C@H](C(=O)N[C@@H](CC(C)C)C(=O)N[C@@H](CO)C(=O)O)C(C)C [K-10-S] (H-KYIPIQYVLS-OH) | 97.3 ± 6.69
11 | CC(C)C[C@H](NC(=O)[C@H](CC(C)C)NC(=O)[C@H](CC(N)=O)NC(=O)[C@H](CCC(=O)O)NC(=O)[C@H](CC(N)=O)NC(=O)[C@H](CC(C)C)NC(=O)[C@@H](NC(=O)[C@H](CCC(=O)O)NC(=O)[C@H](CCC(N)=O)NC(=O)[C@@H]1CCCN1C(=O)[C@H](CC(C)C)NC(=O)CNC(=O)[C@H](CCC(N)=O)NC(=O)[C@H](Cc1c[nH]cn1)NC(=O)[C@@H](N)CCCCN)C(C)C)C(=O)O [K-15-L] (H-KHQGLPQEVLNENLL-OH) | 105 ± 14.5
12 | CC[C@H](C)[C@H](NC(=O)[C@H](CCC(=O)O)NC(=O)CNC(=O)[C@@H]1CCCN1C(=O)[C@@H](NC(=O)[C@@H](N)CC(N)=O)C(C)C)C(=O)N[C@H](C(=O)N[C@@H](CCC(=O)O)C(=O)N[C@@H](CO)C(=O)N[C@@H](CC(C)C)C(=O)O)C(C)C [N-10-L] (H-NVPGEIVESL-OH) | 120 ± 15.7
13 | CC(C)[C@H](NC(=O)[C@H](CCC(=O)O)NC(=O)[C@@H]1CCCN1C(=O)[C@H](Cc1ccccc1)NC(=O)[C@@H]1CCCN1)C(=O)N[C@@H](Cc1ccccc1)C(=O)NCC(=O)N[C@@H](CCCCN)C(=O)N[C@@H](CCC(=O)O)C(=O)O [P-9-E] (H-PFPEVFGKE-OH) | 101 ± 14.5
14 | CC[C@H](C)[C@H](NC(=O)CNC(=O)[C@H](Cc1ccc(O)cc1)NC(=O)[C@H](CO)NC(=O)[C@@H]1CCCN1C(=O)[C@H](Cc1ccc(O)cc1)NC(=O)[C@H](CCCNC(=N)N)NC(=O)[C@H](CO)NC(=O)[C@H](CC(C)C)NC(=O)[C@@H](NC(=O)[C@H](Cc1ccc(O)cc1)NC(=O)[C@@H](N)CCC(N)=O)C(C)C)C(=O)N[C@@H](CC(N)=O)C(=O)O [Q-13-N] (H-QYVLSRYPSYGIN-OH) | 104 ± 6.64
15 | CSCC[C@H](NC(=O)[C@H](Cc1c[nH]c2ccccc12)NC(=O)[C@@H](N)CO)C(=O)N[C@@H](Cc1c[nH]cn1)C(=O)N[C@@H](CCC(N)=O)C(=O)N1CCC[C@H]1C(=O)N[C@@H](Cc1c[nH]cn1)C(=O)N[C@@H](CCC(N)=O)C(=O)N1CCC[C@H]1C(=O)N[C@@H](CC(C)C)C(=O)N1CCC[C@H]1C(=O)N1CCC[C@H]1C(=O)N[C@H](C(=O)O)[C@@H](C)O [S-13-T] (H-SWMHQPHQPLPPT-OH) | 107 ± 12.4
